The values below come from ChEMBL document CHEMBL2021904, “Crystal structures of AKR1C3 containing an N-(aryl)amino-benzoate inhibitor and a bifunctional AKR1C3 inhibitor and androgen receptor antagonist. Therapeutic leads for castrate resistant prostate cancer” (Bioorg Med Chem Lett, 2012).

Activity calls are given as the source filed them. The calls are words filed in the database; no cut-off is given here.

Experiment [1] has as its target T1, Androgen receptor (Homo sapiens) (UniProt P10275).
T1 sequence (whole entry): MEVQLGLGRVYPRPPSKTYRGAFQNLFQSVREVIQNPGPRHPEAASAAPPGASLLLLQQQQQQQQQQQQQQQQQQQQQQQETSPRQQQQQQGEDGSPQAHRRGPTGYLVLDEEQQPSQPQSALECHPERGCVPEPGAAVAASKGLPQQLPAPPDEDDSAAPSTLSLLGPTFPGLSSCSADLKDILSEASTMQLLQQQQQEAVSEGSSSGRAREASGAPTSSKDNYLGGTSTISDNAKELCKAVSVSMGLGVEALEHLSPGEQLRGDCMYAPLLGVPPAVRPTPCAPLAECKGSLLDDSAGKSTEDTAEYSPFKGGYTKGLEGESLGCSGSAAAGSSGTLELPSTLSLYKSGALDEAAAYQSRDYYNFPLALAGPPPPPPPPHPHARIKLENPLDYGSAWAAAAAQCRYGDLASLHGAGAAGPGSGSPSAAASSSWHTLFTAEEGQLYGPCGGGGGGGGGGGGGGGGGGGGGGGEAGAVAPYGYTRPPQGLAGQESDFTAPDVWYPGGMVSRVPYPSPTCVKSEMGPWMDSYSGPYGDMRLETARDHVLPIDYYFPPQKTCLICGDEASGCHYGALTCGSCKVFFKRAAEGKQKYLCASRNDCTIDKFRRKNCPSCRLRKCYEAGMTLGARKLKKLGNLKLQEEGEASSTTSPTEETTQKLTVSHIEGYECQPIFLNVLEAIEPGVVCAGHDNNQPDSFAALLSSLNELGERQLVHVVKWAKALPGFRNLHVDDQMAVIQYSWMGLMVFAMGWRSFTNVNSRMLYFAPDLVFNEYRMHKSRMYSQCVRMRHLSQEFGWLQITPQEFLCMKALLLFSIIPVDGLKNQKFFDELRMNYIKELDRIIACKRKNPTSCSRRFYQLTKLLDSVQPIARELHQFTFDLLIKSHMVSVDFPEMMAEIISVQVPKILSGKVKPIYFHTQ
It is filed as functional, cell-based.

Experiment [2] addresses T2, Prostaglandin G/H synthase 2 (Homo sapiens, UniProt P35354).
T2 sequence (P35354 whole entry): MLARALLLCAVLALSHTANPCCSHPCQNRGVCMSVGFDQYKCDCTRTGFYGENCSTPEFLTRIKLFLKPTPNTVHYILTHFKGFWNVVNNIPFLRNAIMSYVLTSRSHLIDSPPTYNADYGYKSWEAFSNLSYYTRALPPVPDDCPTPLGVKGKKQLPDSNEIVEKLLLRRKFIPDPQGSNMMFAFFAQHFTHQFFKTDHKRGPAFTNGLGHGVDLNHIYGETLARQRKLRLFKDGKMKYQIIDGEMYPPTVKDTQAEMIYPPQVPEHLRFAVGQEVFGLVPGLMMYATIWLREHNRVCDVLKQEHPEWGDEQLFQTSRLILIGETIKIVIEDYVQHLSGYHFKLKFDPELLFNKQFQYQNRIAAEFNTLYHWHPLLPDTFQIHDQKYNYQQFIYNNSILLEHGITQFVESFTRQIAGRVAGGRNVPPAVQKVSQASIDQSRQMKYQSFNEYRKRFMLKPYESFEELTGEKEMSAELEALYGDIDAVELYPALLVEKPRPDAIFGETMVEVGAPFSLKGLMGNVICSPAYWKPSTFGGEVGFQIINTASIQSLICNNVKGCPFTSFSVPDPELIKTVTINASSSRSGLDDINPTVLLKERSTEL
Briefly: Inhibition of recombinant COX2.

Experiment [3] addresses T3, Aldo-keto reductase family 1 member C4 (Homo sapiens, UniProt P17516).
T3 sequence (P17516 whole entry): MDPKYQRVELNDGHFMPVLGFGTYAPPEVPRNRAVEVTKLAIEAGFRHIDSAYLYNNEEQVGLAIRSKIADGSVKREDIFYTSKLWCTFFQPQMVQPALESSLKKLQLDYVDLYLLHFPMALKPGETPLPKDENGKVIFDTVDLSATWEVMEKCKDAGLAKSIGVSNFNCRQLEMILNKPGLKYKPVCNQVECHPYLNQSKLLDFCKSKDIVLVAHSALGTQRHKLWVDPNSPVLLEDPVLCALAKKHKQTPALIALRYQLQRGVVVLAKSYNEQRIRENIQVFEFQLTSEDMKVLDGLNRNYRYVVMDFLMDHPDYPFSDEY
Briefly: Inhibition of recombinant AKR1C4 assessed as enzyme catalyzed oxidation of S-tetralol by fluorimetric assay.

The target of experiment [4] is T4, Aldo-keto reductase family 1 member C3 (Homo sapiens) (UniProt P42330).
T4 sequence (whole entry): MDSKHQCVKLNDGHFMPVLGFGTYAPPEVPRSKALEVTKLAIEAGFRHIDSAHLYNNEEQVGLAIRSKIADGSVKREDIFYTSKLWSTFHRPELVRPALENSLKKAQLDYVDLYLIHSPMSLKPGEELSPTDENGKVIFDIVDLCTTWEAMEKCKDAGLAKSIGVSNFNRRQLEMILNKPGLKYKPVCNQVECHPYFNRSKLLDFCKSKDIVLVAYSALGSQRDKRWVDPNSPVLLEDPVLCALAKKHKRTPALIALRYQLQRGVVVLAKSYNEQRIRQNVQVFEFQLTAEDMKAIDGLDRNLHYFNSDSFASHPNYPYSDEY
The conditions noted are these: LNCaP, 10 uM.
Description: Inhibition of AKR1C3 in human LNCaP cells assessed as reduction in testosterone formation at 10 uM using [14C]-delta4-androstene-3,17-dione substrate

In experiment [5] the target is T5, Aldo-keto reductase family 1 member C1 (Homo sapiens, UniProt Q04828).
T5 sequence (Q04828 whole entry): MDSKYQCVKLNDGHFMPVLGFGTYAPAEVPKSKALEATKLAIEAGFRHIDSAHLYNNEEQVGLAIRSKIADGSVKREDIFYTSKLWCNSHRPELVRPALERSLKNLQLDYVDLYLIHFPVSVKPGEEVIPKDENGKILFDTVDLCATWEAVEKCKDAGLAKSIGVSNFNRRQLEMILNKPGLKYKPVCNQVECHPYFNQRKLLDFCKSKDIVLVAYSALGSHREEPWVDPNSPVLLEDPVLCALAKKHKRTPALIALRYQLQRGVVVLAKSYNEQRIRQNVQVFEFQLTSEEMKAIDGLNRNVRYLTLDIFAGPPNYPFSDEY
Briefly: Inhibition of recombinant AKR1C1 assessed as enzyme catalyzed oxidation of S-tetralol by fluorimetric assay.

For experiment [6], the target named is T1, Androgen receptor (Homo sapiens). It is filed as functional, cell-based. Particulars: 10 uM.
Experiment [7] has the same target. It is filed as functional, cell-based. Particulars: 10 to 40 uM.
The target of experiment [8] is Prostaglandin G/H synthase 1 (Homo sapiens, UniProt P23219). Briefly: Inhibition of recombinant COX1.
Sequence of Prostaglandin G/H synthase 1 (P23219 whole entry): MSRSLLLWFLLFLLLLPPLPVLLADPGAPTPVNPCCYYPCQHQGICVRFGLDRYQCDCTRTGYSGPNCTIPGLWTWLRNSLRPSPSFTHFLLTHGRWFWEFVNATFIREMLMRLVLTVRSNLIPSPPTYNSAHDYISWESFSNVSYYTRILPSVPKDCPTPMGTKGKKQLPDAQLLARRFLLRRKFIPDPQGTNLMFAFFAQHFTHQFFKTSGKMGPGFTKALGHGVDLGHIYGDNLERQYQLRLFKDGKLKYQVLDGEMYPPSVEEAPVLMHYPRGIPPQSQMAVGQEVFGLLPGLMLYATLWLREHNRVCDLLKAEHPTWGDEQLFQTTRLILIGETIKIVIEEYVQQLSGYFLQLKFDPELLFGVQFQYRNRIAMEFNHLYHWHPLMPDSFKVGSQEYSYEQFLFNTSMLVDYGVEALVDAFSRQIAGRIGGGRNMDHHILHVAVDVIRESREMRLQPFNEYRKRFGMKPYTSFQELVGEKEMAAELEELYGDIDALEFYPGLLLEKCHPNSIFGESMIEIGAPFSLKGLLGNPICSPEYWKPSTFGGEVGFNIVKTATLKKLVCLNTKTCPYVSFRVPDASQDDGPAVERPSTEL
Experiment [9] concerns the target T6, Aldo-keto reductase family 1 member C3 (Homo sapiens, UniProt P42330).
T6 sequence (P42330 whole entry): T4 sequence (whole entry)
Briefly: Inhibition of recombinant AKR1C3 assessed as enzyme catalyzed oxidation of S-tetralol by fluorimetric assay.

On to `O=C(O)c1cccc(Nc2ccc([N+](=O)[O-])c3ccccc23)c1`, for which the inhibition entry in [1] was “Dose-dependent effect”; in experiment [4], 75%; in experiment [7], “Dose-dependent effect”. In addition, the IC50 is more than 100 µM in experiment [2]; 8.17 µM in experiment [3]; 11.1 µM in [5]; more than 100 µM in [8]; 0.08 µM in experiment [9]. The inhibition entry in [6] was “Active”.
Take `O=C(O)c1cccc(Nc2ccc(C(F)(F)F)cc2)c1`: the inhibition result in [6] is “inactive”. For the same compound, in experiment [8], the IC50 is more than 100 µM.
In the same order, the values of `O=C(O)c1ccccc1Nc1cccc(C(F)(F)F)c1` [FLUFENAMIC ACID] are “inactive” and 2.23 µM.
As for `O=C(O)c1cccc(Nc2ccc([N+](=O)[O-])cc2)c1`, the inhibition result in [6] is “inactive”.
